Legend:
Assay type in all cases: in vivo
[1] = test system: diet-induced obese (DIO) AKR/J mouse; test: Body weight, body composition (qMR) and liver weight in diet-induced obese AKR/J mice; details: for BW day 0: baseline before treatment; for Fat mass day 28 / Lean mass day 28: qMR; for Liver weight: terminal collection
Description: The effects of monotherapy with selective PPAR agonists, combination therapy with PPARα and PPARδ, and treatment with PPARpan agonists were evaluated in four experiments in diet-induced obese (DIO) AKR/J mouse. The AKR/J mouse is a polyoma-susceptible strain originally utilized to study accelerated tumor development. This strain becomes obese and hyperinsulemic when fed a high fat diet. Age-matched, male AKR/J mice were allowed ad libitum access to Research Diet D12331 (Research Diet, Brunswick, NJ) at the Jackson Laboratories (Bar Harbor, ME) beginning at 6 weeks of age. The diet has an energy density of 5.56 kcal/g (58% kcal from fat; 26% kcal from carbohydrates, and 16% kcal from protein). The animals were allowed to become obese, achieving BW >40 grams before shipping to GlaxoSmithKline laboratory animal facility at 13 weeks of age. The mice were housed 4 per cage in standard shoebox cages and were fed the high fat diet until they reached approximately 50 grams. Age-matched lean control animals obtained from Jackson Laboratories were fed a diet of normal chow (3.04 kcal/g energy density, 12% kcal from fat, LabDiet 5001, St. Louis, MO) and used for comparison.
At the beginning of each study, the animals were weighed and body composition obtained using an EchoMRI-100 quantitative magnetic resonance (qMR, EchoMRI, Houston, TX) whole body composition analyzer. […] 16 lean control mice on standard chow were used as reference. All mice were dosed orally with vehicle (0.5% methylcellulose and 0.1% Tween 80, 10 mL/kg) for six days prior to the beginning of dosing for acclimation to handling and treatment before drug treatment was initiated.
(§1) In each experiment, BW of each animal was measured and recorded three times weekly throughout the treatment period. Body mass was obtained weekly on days 0, 7, 13, 20, and 27 of treatment. The effects of selective PPARα, δ, and γ agonists on food consumption were also assessed. Food consumption is expressed as total energy consumed (kcal) over a 24-period and as cumulative consumption over the course of the experiment.
(§2) On the final day of each experiment, a terminal blood sample (800–1000 μL) was obtained via cardiac puncture under isoflurane anesthesia. Whole blood was placed in a Terumo Capiject blood collection tube (Terumo Medical Corp., Elkton, Md, USA), allowed to sit at room temperature for 20 minutes then centrifuged to obtain serum. Serum levels of glucose, triglycerides, glycerol, nonesterified fatty acids, total cholesterol, the high-density lipoprotein cholesterol, and β-hydroxybutyrate were determined in all mice using an Olympus AU640 clinical chemistry immuno-analyzer (Olympus America Inc., Melville, NY, USA). In addition, liver weights were obtained following the terminal blood sample on the final day of the study and samples were used to determine liver fatty acid oxidation activity.
(§3) Experiment 1 was designed to study the effects of a selective PPARα agonist and PPARδ agonist as mono and combination therapy. 48 mice were sorted into 6 groups and blocked such that initial BW and body composition were not different between groups. […] Two additional groups of mice were dosed for the first 14 days with either a PPARα agonist or a PPARδ agonist alone. At day 15, the PPARδ agonist was added to the treatment regimen of animals dosed with PPARα, and the PPARα agonist was added to the dosing material of animals previously dosed with PPARδ alone. The sixth group was dosed with both the PPARα and PPARδ agonists for the entire 28-day period. BW and food consumption were assessed 3 times per week and body composition was measured weekly.
In Experiment 2, 32 mice were sorted into 4 groups (n = 8/group) and dosed with vehicle and a selective PPARγ agonist (GW7845, 3 mg/kg) for 28 days. Rimonabant (RIM, 10 or 30 mg/kg, q.d.), a CB1 receptor antagonist, was used as a positive control for weight loss. […]

[2] = test system: diet-induced obese (DIO) AKR/J mouse; test: Food consumption in diet-induced obese AKR/J mice; details: compared to vehicle-treated animals; doses and regimen as in methods
Description: as §1
The fat content of Research Diets D12331 chow results in pellets that crumbles making it difficult to quantify food consumption thus, Research Diets D12451 chow (4.7 kcal/g (45% kcal from fat, 35% kcal from carbohydrates and 20% kcal from protein)) was used in studies where food consumption was determined as these pellets are more solid. The animals were transitioned two weeks before compound dosing from Research Diets D12331 chow to Research Diets D12451 chow. Previous experiments (data not presented) have shown that animals fed this diet maintain the same BW and fat mass level as observed at the time of transition.
as §3
In Experiment 2, 32 mice were sorted into 4 groups (n = 8/group) and dosed with vehicle and a selective PPARγ agonist (GW7845, 3 mg/kg) for 28 days. Rimonabant (RIM, 10 or 30 mg/kg, q.d.), a CB1 receptor antagonist, was used as a positive control for weight loss. As in Experiment 1, BW and food consumption were determined 3 times per week and body composition was measured weekly.

[3] = test system: diet-induced obese (DIO) AKR/J mouse; test: Serum clinical chemistry of terminal blood samples, DIO AKR/J mice; details: serum, end of treatment, 28 days
Description: as §2

In the case of `Cc1c(C(=O)NN2CCCCC2)nn(-c2ccc(Cl)cc2Cl)c1-c1ccc(Cl)cc1` [RIM, Rimonabant, reference compound], the “BW day 28” value ([1]; 10 mg/kg oral, 28 days) is reported as 44.1 ± 1.3 grams, the “BW day 28” value ([1]; 30 mg/kg oral, 28 days) is reported as 41.8 ± 0.5 grams and the “effect on FM (in words)” value ([1]; 28 days, doses as in methods) is reported as “decreased FM in a dose-dependent manner”. The “BW day 0” value ([1]; group dosed 10 mg/kg oral) was 50.6 ± 0.8 grams, the “BW day 0” value ([1]; group dosed 30 mg/kg oral) was 51.0 ± 0.7 grams and the “reduction of BW” value ([1]; highest dose (30 mg/kg), within the first 10 days of treatment) was 17%. For the same compound, the “effect on BW (in words)” value ([1]; oral, 28 days, GW9578 1, GW0742 30, GW7845 3, RIM 10 and 30 mg/kg, PPARpan agonists) was “significant, dose-related decreases of BW”, the “Fat mass day 28” value ([1]; 10 mg/kg oral, 28 days) was 15.0 ± 0.9 grams and the “Lean mass day 28” value ([1]; 10 mg/kg oral, 28 days) was 25.2 ± 0.8 grams. For the same compound, the “Fat mass day 28” value ([1]; 30 mg/kg oral, 28 days) was 11.6 ± 0.3 grams, the “Lean mass day 28” value ([1]; 30 mg/kg oral, 28 days) was 26.5 ± 0.5 grams and the Liver weight ([1]; 10 mg/kg oral, 28 days) was 2.0 ± 0.1 grams. For the same compound, the Liver weight ([1]; 30 mg/kg oral, 28 days) was 2.0 ± 0.1 grams, the “effect on food consumption (in words)” value [2] was “dose-related decreases in food consumption” and the Cholesterol ([3]; 10 mg/kg oral) was 147.3 ± 9.1 mg/dL. For the same compound, the Glucose ([3]; 10 mg/kg oral) was 230.1 ± 16.6 mg/dL, the HDL-C ([3]; 10 mg/kg oral) was 95.1 ± 4.6 mg/dL and the Insulin ([3]; 10 mg/kg oral) was 7.2 ± 2.5 ng/mL. It also gave an NEFA ([3]; 10 mg/kg oral) of 0.8 ± 0.05 mEq/L, a Triglyceride ([3]; 10 mg/kg oral) of 181.4 ± 36.1 mg/dL and a bHBA ([3]; 10 mg/kg oral) of 2.5 ± 0.2 mg/dL. For the same compound, the Cholesterol ([3]; 30 mg/kg oral) was 143.4 ± 4.0 mg/dL, the Glucose ([3]; 30 mg/kg oral) was 215.3 ± 13.0 mg/dL and the HDL-C ([3]; 30 mg/kg oral) was 116.9 ± 2.6 mg/dL. For the same compound, the Insulin ([3]; 30 mg/kg oral) was 3.4 ± 0.7 ng/mL, the NEFA ([3]; 30 mg/kg oral) was 0.9 ± 0.02 mEq/L and the Triglyceride ([3]; 30 mg/kg oral) was 159.7 ± 16.1 mg/dL. For the same compound, the bHBA ([3]; 30 mg/kg oral) was 1.8 ± 0.2 mg/dL.

Source: article PMC1940322, “The Effect of PPARα, PPARδ, PPARγ, and PPARpan Agonists on Body Weight, Body Mass, and Serum Lipid Profiles in Diet-Induced Obese AKR/J Mice” (PPAR Research, 2007)
